Tested on: DNFB-induced allergic contact dermatitis
Test: DNFB-induced contact dermatitis in mice (allergic contact dermatitis model)
Format: in vivo, mice (NMRI)
Details: ascrolimus applied in the EDR system, 0.1, 0.3, 1.0%, ear homogenates, 24 hours
From the text: Various models can be used in order to determine the effectiveness and bioavailability of active substances as a function of the topical medication used. A suitable pharmacological model within the scope of anti-inflammatory therapy on the skin is represented by the “Irritant contact dermatitis (ICD)” model in mice. In this model, the inflammatory components of eczema are imitated. This inflammatory aspect likewise plays a role in allergic contact dermatitis and atopic dermatitis with the participation of allergen-specific T cells intrinsic to the skin. Therefore, a T-cell-dependent model of allergic contact dermatitis (in reaction to dinitrofluorobenzene, DNFB) can be utilized. Acute and chronic allergic contact dermatitis (ACD) is characterized by a type-1 dominated cytokine profile. Therefore, the ACD model induced by dinitrofluorobenzene (DNFB) was used in order to assess in vivo the activity of the active substance “ascrolimus” (topical immunomodulator). After sensitizing by means of DNFB, edema was produced by subsequent application of the same contact allergens and therefore, a cutaneous infiltration of allergenic T-cells and granulocytes was triggered. The mice (NMRI) were sensitized with 0.5% DNFB on day 0 and day 1. On day 5, the mice were again treated with 0.3% DNFB. […]

## ascrolimus
  peroxidase activity as a measure for granulocyte infiltration (delta peroxidase, FIG. 5): significant concentration-dependent inhibition
